Molecular target: T1, OR67d/ORCO (Drosophila melanogaster, UniProt Q9VT92)
T1 construct: endogenous receptor in OR67d olfactory neurons in vivo (wild type, or snmp1 null rescued with transgenic SNMP1); with Odorant receptor coreceptor; Sensory neuron membrane protein 1
Assay: single sensillum electrophysiology in flies
Format: cell-based
Settings: v/v dilutions in paraffin oil, airstream

T1 sequence (Q9VT92 whole entry): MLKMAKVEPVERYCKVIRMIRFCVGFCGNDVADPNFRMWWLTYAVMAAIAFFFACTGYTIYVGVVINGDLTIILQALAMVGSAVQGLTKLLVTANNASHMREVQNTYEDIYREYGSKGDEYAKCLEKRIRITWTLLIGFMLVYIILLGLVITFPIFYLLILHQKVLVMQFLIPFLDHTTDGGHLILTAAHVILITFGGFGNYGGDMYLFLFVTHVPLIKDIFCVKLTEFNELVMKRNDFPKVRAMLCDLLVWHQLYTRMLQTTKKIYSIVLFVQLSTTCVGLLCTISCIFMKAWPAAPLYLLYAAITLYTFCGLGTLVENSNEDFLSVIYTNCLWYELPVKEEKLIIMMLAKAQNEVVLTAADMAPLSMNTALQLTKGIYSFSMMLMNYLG
T1 sequence (Q9VNB5 whole entry partner): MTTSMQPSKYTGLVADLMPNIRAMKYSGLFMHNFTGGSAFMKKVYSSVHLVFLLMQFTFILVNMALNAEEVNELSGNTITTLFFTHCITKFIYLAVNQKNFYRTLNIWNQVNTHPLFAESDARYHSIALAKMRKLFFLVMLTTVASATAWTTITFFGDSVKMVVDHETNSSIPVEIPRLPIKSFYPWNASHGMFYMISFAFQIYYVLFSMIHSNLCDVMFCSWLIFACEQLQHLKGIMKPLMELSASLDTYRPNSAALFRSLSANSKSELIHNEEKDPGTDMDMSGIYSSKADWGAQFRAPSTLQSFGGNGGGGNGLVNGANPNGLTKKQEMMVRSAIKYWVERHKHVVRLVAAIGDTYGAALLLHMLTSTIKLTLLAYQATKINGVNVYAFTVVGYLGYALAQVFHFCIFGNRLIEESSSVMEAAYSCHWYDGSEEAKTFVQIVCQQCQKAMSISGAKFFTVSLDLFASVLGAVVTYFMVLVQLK
T1 sequence (Q9VDD3 whole entry partner): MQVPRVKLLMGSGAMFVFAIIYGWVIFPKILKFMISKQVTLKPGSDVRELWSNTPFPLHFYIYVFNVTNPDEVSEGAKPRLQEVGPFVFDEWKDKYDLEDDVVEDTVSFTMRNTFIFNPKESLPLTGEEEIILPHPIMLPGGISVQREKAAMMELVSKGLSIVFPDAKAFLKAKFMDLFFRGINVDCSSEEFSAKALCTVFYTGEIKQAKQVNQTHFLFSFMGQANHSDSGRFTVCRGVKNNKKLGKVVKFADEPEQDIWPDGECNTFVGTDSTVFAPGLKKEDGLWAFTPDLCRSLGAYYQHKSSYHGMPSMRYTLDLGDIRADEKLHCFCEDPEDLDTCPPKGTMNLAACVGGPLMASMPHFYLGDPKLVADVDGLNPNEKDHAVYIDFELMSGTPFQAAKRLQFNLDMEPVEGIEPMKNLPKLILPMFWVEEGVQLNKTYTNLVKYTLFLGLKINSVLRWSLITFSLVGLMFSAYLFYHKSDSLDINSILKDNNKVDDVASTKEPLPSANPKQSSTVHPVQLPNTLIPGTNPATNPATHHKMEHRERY

**Q.** How did the spikes/s turn out when `CCCCCC/C=C\CCCCCCCCCCOC(C)=O` [cVA, (Z)-11-octadecenyl acetate] was run?
**A.** Concentration–response curves of OR67d neurons to cVA in the indicated rescue genotypes

Reference: publication PMC4912623, “A CD36 ectodomain mediates insect pheromone detection via a putative tunnelling mechanism” (Nature Communications, 2016)
